Reference: US10106601B2, “Inhibition of PLGF to treat philadelphia chromosome positive leukemia” (VIB VZW, priority 2008, dated 2018)
Entries after “also recorded” stand apart in the source; their conditions may differ.

Key:
PIGF = PIGF levels in PB of CML patients treated with Imatinib; assay type: in vivo, human
murine BMDSCs = assay: PIGF secretion by stromal cells incubated with imatinib; assay type: cell-based; conditions: increasing concentrations of imatinib
Experimental: For isolation of BMDSCs, the bone marrow from femurs and tibias was flushed, the erythrocytes eliminated with lysis buffer (150 mM NH4Cl, 0.1 mM EDTA, 10 mM KHCO3, pH 7.4) and subsequently the cells were cultured in DMEM medium supplemented with 15% FCS. After 24 hours, the non-adherent cell fraction was removed, and the adherent cells were further cultured and expanded for 3 weeks.
Concentrations of PIGF or VEGF were quantified in cell culture supernatants, peripheral blood plasma and bone marrow plasma using “Quantikine” mouse PIGF and mouse VEGF immunoassays (R&D Systems). Concentrations were expressed as pg/ml/10^5 cells or as pg/ml.

BCR/ABL+ cell lines = assay: Induction of proliferation of leukemia cells by recombinant PIGF; assay type: cell-based, human and murine; conditions: in vitro
Experimental: Proliferation of leukemia cells and BMDSCs was analyzed by using MTT assays or by manual counting with a hemocytometer. Murine recombinant PIGF and anti-VEGFR-1 were obtained from R&D Systems. Anti-PIGF and control IgG1 were produced by Thrombogenics and Biolnvent and characterized as described (Fischer et al., 2007). PIGF was used at a concentration of 50 ng/ml and the antibodies in 100-fold molar excess, unless stated otherwise. For co-culture experiments, 10^5 BMDSCs were co-cultured for 48 hours with 4×10^5 leukemia cells alone or in presence of the respective antibodies in serum-free medium. Subsequently, numbers of adherent BMDSCs and non-adherent leukemia cells were determined and supernatants were harvested for analyses of PIGF and VEGF protein.

Bv-173 and KCL-22 cells = assay: Western Blots of ABL phosphorylation with and without PIGF; assay type: cell-based, human; conditions: cells incubated with and without PIGF; data not shown
Experimental: In order to elucidate, whether PIGF induces changes in ABL phosphorylation of BCR/ABL^+ leukemia cells, we performed Western Blots of Bv-173 and KCL-22 cells that were incubated with and without PIGF.

Molecule | PIGF levels in PB (PIGF; patients with BCR/ABL/ABL ratio <1) | PIGF levels in PB (PIGF; patients with complete molecular remission (CMR) vs healthy subjects) | PIGF secretion by BMDSCs (murine BMDSCs) | induction of proliferation of leukemia cells by PIGF (BCR/ABL+ cell lines) | phosphorylation of ABL (Bv-173 and KCL-22 cells)
Cc1ccc(NC(=O)c2ccc(CN3CCN(C)CC3)cc2)cc1Nc1nccc(-c2cccnc2)n1 [imatinib] | elevated to similar levels as in untreated, newly diagnosed CML patients | significantly higher | dose-dependent induction of PIGF |  | 
PIGF: murine recombinant placental growth factor from R&D Systems, used at 50 ng/ml (protein, UniProt P49764 19-158, looked up) Placenta growth factor: VHSQGALSAGNNSTEVEVVPFNEVWGRSYCRPMEKLVYILDEYPDEVSHIFSPSCVLLSRCSGCCGDEGLHCVPIKTANITMQILKIPPNRDPHFYVEMTFSQDVLCECRPILETTKAERRKTKGKRKRSRNSQTEEPHP |  |  |  | dose dependently induced proliferation; also recorded: dose-dependent induction of proliferation | did not modify phosphorylation of ABL
